Legend:
[1] = system: Staphylococcus aureus strain MRSA USA300; assay: Microdilution assay, minimum inhibitory concentration of non-coating incorporated auranofin; assay type: cell-based; details: TSBG, ~18 hours
Protocol: Auranofin release from PU+auranofin-coated catheters was monitored by incubating each coated catheter in 1.98 mL of tryptic soy broth supplemented with 0.25% glucose (TSBG) at 37° C. with shaking at 110 rpm. […] Heilmann et al., Infect. Immun., 64, 277-82 (1996); Lim et al., J. Bacteriol., 186, 722-729 (2004). Every twenty-four hours, the release solutions were collected and completely replaced with fresh medium. A microdilution assay, as described by Shukla & Shukla, J. Mater. Chem. B, 6, 6444-6458 (2018), was used to determine the amount of auranofin contained in the media release samples by comparing the antibacterial activity to that of known concentrations of non-coating incorporated auranofin. […] Staphylococcus aureus strain MRSA USA300 (10 μL) at a final concentration of 10^5 CFU/mL in the exponential growth phase (as determined by optical density) was added to these wells. […] Subsequently, the optical density (OD) of the samples was read at 600-nm using a Cytation3 microplate reader (BioTek, Winooski, VT, USA). The normalized bacteria density was calculated using Equation (1).
The minimum inhibitory concentration of the auranofin control against USA300 was determined as the concentration range of auranofin needed to observe a statistically significant transition of normalized bacteria density from […]. […]

[2] = system: Gram-positive pathogenic bacteria, including Mycobacterium tuberculosis, Bacillus subtilis, Enterococcus faecalis, Enterococcus faecium, Staphylococcus aureus; details: Hassanein et al. 2017; cited from earlier work
[3] = oral antirheumatic therapy; Egsmose et al. 1995; cited from earlier work
[4] = system: preformed Staphylococcus aureus biofilms; details: within two hours of exposure; Torres et al. 2016; cited from earlier work
MRSA USA300 = assay: Kirby-Bauer assay, inner and outer surfaces of bisected coated catheters; assay type: cell-based; details: Staphylococcus aureus, read-out: average zone of inhibition diameter
Excerpt: To evaluate the auranofin release, the inventors used a Kirby Bauer assay to visualize the bacterial inhibition and determine if the catheter released the auranofin into the surrounding media. Coated catheters were split through the circumference of the material to expose both the inner and outer surfaces. […] The inventors then placed these catheter pieces were then placed on a bacteria-seeded agar plate with the respective surfaces face down.
Antibacterial and antibiofilm activity of PU+auranofin catheter coatings was examined against MRSA USA300, a community-associated MRSA strain. Kirby-Bauer and broth bacteria survival assays on the coated catheters and their release solutions were conducted, respectively. For the Kirby-Bauer assay, MRSA USA300 in the exponential growth phase at a concentration of 10^8 CFU/mL was spread on tryptic soy agar plates. PU+auranofin-coated and PU+auranofin-uncoated catheters were cut in half lengthwise using a scalpel. Both the inner and outer surfaces of the catheters were placed in direct contact with the bacteria seeded agar and incubated for twenty-four hours at 37° C. These plates were then photographed using a Canon PowerShot S110 digital camera (Tokyo, Japan).

Structure (SMILES)	minimum inhibitory concentration against USA300 [1]	minimum inhibitory concentration (MIC) against these bacteria [2]	cumulative toxicity during long-term treatments [3]	effect on preformed Staphylococcus aureus biofilms [4]	zone of inhibition at 30 µg/disc (MRSA USA300)
CC(=O)OCC1OC([S-])C(OC(C)=O)C(OC(C)=O)C1OC(C)=O.CCP(CC)CC.[Au+] (centres unmarked) [auranofin, Gold(+1) cation; 3,4,5-triacetyloxy-6-(acetyloxymethyl) oxane-2-thiolate; triethylphosphanium]	0.063 µg/mL	≥ 0.25 µg/mL	no cumulative toxicity	inhibit preformed Staphylococcus aureus biofilms	
CN[C@H](CC(C)C)C(=O)N[C@H]1C(=O)N[C@@H](CC(N)=O)C(=O)N[C@H]2C(=O)N[C@H]3C(=O)N[C@H](C(=O)N[C@H](C(=O)O)c4cc(O)cc(O)c4-c4cc3ccc4O)[C@H](O)c3ccc(c(Cl)c3)Oc3cc2cc(c3O[C@@H]2O[C@H](CO)[C@@H](O)[C@H](O)[C@H]2O[C@H]2C[C@](C)(N)[C@H](O)[C@H](C)O2)Oc2ccc(cc2Cl)[C@H]1O [vancomycin]					14.8 ± 2 mm
